Experimental findings from patent US5726186A, “Pentacyclic compounds, intermediates, processes, compositions, and methods” (Eli Lilly and Company, priority 1996, dated 1998) are described below.

One test deals with Distal Femur Metaphysis. Kind of test: Osteoporosis test, distal femur metaphysis X-ray image analysis. It is filed as in vivo, female Sprague Dawley rats (ovariectomized). The following applies: oral; for Distal Femur Metaphysis (X-ray Image Analysis-Gray Score), percent protection relative to ovariectomy: daily for 35 days, in 20% hydroxypropyl b-cyclodextrin. An excerpt:
Seventy-five day old female Sprague Dawley rats (weight range of 200 to 225 g) were obtained from Charles River Laboratories (Portage, Mich.). The animals were either bilaterally ovariectomized (OVX) or exposed to a Sham surgical procedure at Charles River Laboratories, and then shipped after one week. Upon arrival, they were housed in metal hanging cages in groups of 3 or 4 per cage and had ad libitum access to food (calcium content approximately 0.5%) and water for one week. Room temperature was maintained at 22.2°±1.7° C. with a minimum relative humidity of 40%. The photoperiod in the room was 12 hours light and 12 hours dark. Following the General Preparation Procedure, infra, the rats were treated daily for 35 days (6 rats per treatment group) and sacrificed by carbon dioxide asphyxiation on the 36th day. The 35 day time period was sufficient to allow maximal reduction in bone density, measured as described herein. At the time of sacrifice, the uteri were removed, dissected free of extraneous tissue, and the fluid contents were expelled before determination of wet weight in order to confirm estrogen deficiency associated with complete ovariectomy. […] The uteri were then placed in 10% neutral buffered formalin to allow for subsequent histological analysis. The right femurs were excised and digitilized x-rays generated and analyzed by an image analysis program (NIH image) at the distal metaphysis. The proximal aspect of the tibiae from these animals were also scanned by quantitative computed tomography. In accordance with the above procedures, compounds of the present invention and ethynyl estradiol (EE2) in 20% hydroxypropyl b-cyclodextrin were orally administered to test animals. Distal femur metaphysis data presented in Tables 2 and 3 below are the results of formula I compound treatments compared to intact and ovariectomized test animals. Results are reported as percent protection relative to ovariectomy.

In test [1] the test system is Uterine Eosinophil Peroxidase (EPO). Kind of test: Uterine Eosinophil Peroxidase (EPO) Assay. It is filed as in vivo, female Sprague Dawley rats (ovariectomized). More on the design: Uterine EPO (V. max): unit not given here. The following applies: oral, daily for 4 days, OVX rats; for Uterine EPO (V. max): 450 nm. An excerpt:
(§1) Seventy-five day old female Sprague Dawley rats (weight range of 200 to 225 g) were obtained from Charles River Laboratories (Portage, Mich.). The animals were either bilaterally ovariectomized (OVX) or exposed to a Sham surgical procedure at Charles River Laboratories, and then shipped after one week. Upon arrival, they were housed in metal hanging cages in groups of 3 or 4 per cage and had ad libitum access to food (calcium content approximately 0.5%) and water for one week. Room temperature was maintained at 22.2°±1.7° C. with a minimum relative humidity of 40%. The photoperiod in the room was 12 hours light and 12 hours dark.
(§2) Dosing Regimen Tissue Collection. After a one week acclimation period (therefore, two weeks post-OVX) daily dosing with test compound was initiated. 17a-ethynyl estradiol or the test compound were given orally, unless otherwise stated, as a suspension in 1% carboxymethylcellulose or dissolved in 20% cyclodextrin. Animals were dosed daily for 4 days. Following the dosing regimen, animals were weighed and anesthetized with a ketamine: Xylazine (2:1, V:V) mixture and a blood sample was collected by cardiac puncture. The animals were then sacrificed by asphyxiation with CO2, the uterus was removed through a midline incision, and a wet uterine weight was determined.
Uterine Eosinophil Peroxidase (EPO) Assay. Uteri were kept at 4° C. until time of enzymatic analysis. The uteri were then homogenized in 50 volumes of 50 mM Tris buffer (pH-8.0) containing 0.005% Triton X-100. Upon addition of 0.01% hydrogen peroxide and 10 mM O-phenylenediamine (final concentrations) in Tris buffer, increase in absorbance was monitored for one minute at 450 nm. The presence of eosonophils in the uterus is an indication of estrogenic activity of a compound. The maximal velocity of a 15 second interval was determined over the initial, linear portion of the reaction curve.
As is expressed in the below data, estrogenicity also was assessed by evaluating the adverse response of eosinophil infiltration into the uterus.
(§3) The data presented in the Tables 1 below reflects the response of 5 to 6 rats per treatment.

The subject of the next test is uterus. The test is described as follows: Wet uterine weight in ovariectomized rats (post-menopausal model). It is filed as in vivo, female Sprague Dawley rats (ovariectomized). The following applies: oral, OVX rats. On the procedure: In the examples illustrating the methods, a post-menopausal model was used in which effects of different treatments upon circulating lipids were determined.
as §1, §2, §3

Another test concerns Serum Cholesterol. Kind of test: Serum cholesterol analysis in ovariectomized rats. It is filed as in vivo, female Sprague Dawley rats (ovariectomized). The following applies: oral, OVX rats.
From the text: as §1, §2
Cholesterol Analysis. Blood samples were allowed to clot at room temperature for 2 hours, and serum was obtained following centrifugation for 10 minutes at 3000 rpm. Serum cholesterol was determined using a Boehringer Mannheim Diagnostics high performance cholesterol assay. Briefly the cholesterol was oxidized to cholest-4-en-3-one and hydrogen peroxide. The hydrogen peroxide was then reacted with phenol and 4-aminophenazone in the presence of peroxidase to produce a p-quinone imine dye, which was read spectrophotemetrically at 500 nm. Cholesterol concentration was then calculated against a standard curve. The entire assay was automated using a Biomek Automated Workstation.
as §3

Test [2] concerns MCF-7 breast adenocarcinoma cells. Kind of test: MCF-7 Proliferation Assay (tritiated thymidine). It is filed as cell-based. The following applies: Homo sapiens, MCF7; MCF-7 cells, 48 hours, tritiated thymidine pulse 4 hours. On the procedure:
MCF-7 breast adenocarcinoma cells (ATCC HTB 22) were maintained in MEM (minimal essential medium, phenol red-free, Sigma, St. Louis, Mo.) supplimented with 10% fetal bovine serum […] (V/V), L-glutamine (2 mM), sodium pyruvate (1 mM), HEPES {(N-[2-hydroxyethyl]piperazine-N'-[2-ethanesulfonic acid]10 mM)}, non-essential amino acids and bovine insulin (1 ug/mL) (maintenance medium). Ten days prior to assay, MCF-7 cells were switched to maintenance medium supplemented with 10% dextran coated charcoal stripped fetal bovine serum (DCC-FBS) assay medium) in place of 10% FBS to deplete internal stores of steroids. MCF-7 cells were removed from maintenance flasks using cell dissociation medium (Ca++/Mg++ free HBSS (phenol red-free) supplemented with 10 mM HEPES and 2 mM EDTA). Cells were washed twice with assay medium and adjusted to 80,000 cells/mL. Approximately […] (8,000 cells) were added to flat-bottom microculture wells (Costar 3596) and incubated at 37° C. in a 5% CO2 humidified incubator for 48 hours to allow for cell adherence and equilibration after transfer. Serial dilutions of drugs or DMSO as a diluent control were prepared in assay medium and […] to triplicate microcultures followed by […] assay medium for a final volume of […]. After an additional 48 hours at 37° C. in a 5% CO2 humidified incubator, microcultures were pulsed with tritiated thymidine (1 uCi/well) for 4 hours. Cultures were terminated by freezing at -70° C. for 24 hours followed by thawing and harvesting of microcultures using a Skatron Semiautomatic Cell Harvester. Samples were counted by liquid scintillation using a Wallac BetaPlace b counter. Results in Table 3 below show the IC50 for certain compounds of the present invention.

[3] abbreviates: Rattus norvegicus, 96 h, daily for 4 days, read-out: Uterine Weight (% increase vs. OVX).
The mark [4] stands for this setting: Rattus norvegicus, 96 h, daily for 4 days, read-out: Serum Cholesterol (% decrease vs. OVX).

Regarding `C#CC1(O)CCC2C3CCc4cc(O)ccc4C3CCC21C` (stereo not drawn) [EE2, 17α-ethynyl estradiol, reference compound], the “Distal Femur Metaphysis (X-ray Image Analysis-Gray Score), percent protection relative to ovariectomy” value with Distal Femur Metaphysis (0.1 mg/kg) was 62.4%. Besides, the “Prevention of bone loss (result in words)” value with Distal Femur Metaphysis (OVX rats, 35 days) was “prevented this loss”. Also, in test [1] (0.1 mg/kg), the “Uterine EPO (V. max)” value was 116.4. The “Eosinophil infiltration into the uterus (stromal layer)” value in test [1] is reported as “substantial, expected increase in eosinophil infiltration”. The change in vivo at 0.1 mg/kg in the test with uterus (setting [3]) was 86.3%. In addition, the “Uterine weight (result in words)” value with uterus (EE2 at 0.1 mg/kg/day) was “uterine weight was substantially greater than the uterine weight of ovariectomized test animals”. Moreover, the inhibition in vivo at 0.1 mg/kg in the test with Serum Cholesterol (setting [4]) amounted to 81.4%. Besides, the “Serum cholesterol (result in words)” value in the test on Serum Cholesterol (EE2 at 0.1 mg/kg/day) is “caused a decrease in serum cholesterol”.

In the case of `COc1ccc2c(c1)OC(c1ccc(OCCN3CCCCC3)cc1)c1c-2sc2cc(OC)ccc12` (centres unmarked) [Example 2, 3,9-Dimethoxy-6-[4-[2-(1-piperidinyl)ethoxy]phenyl]-6-H-[1]benzothieno[3,2-c][1]benzopyran], in test [2], half-maximal inhibition (IC50) was put at 100 nM.

With `O=C(Oc1ccc2c(c1)OC(c1ccc(OCCN3CCCCC3)cc1)c1c-2sc2cc(OC(=O)c3ccccc3)ccc12)c1ccccc1` (centres unmarked) [Example 3, 3,9-Bis(benzoyloxy)-6-[4-[2-(1-piperidinyl)ethoxy]phenyl]-6-H-[1]benzothieno[3,2-c][1]benzopyran], the “Uterine EPO (V. max)” value in test [1] (0.1 mg/kg) came out at 4.2. Besides, the “Uterine EPO (V. max)” value in test [1] (1.0 mg/kg) is 3.0. Further, in the test on uterus (setting [3]), the change in vivo at 0.1 mg/kg was determined as 32.5% and the change in vivo at 1 mg/kg came out at 7.4%. In test [2], the concentration for half-maximal inhibition (IC50) – broadly, the concentration needed to halve the response being measured – turned out to be 3 nM. Besides, in the test with Serum Cholesterol (setting [4]), the inhibition in vivo at 0.1 mg/kg came to 51.5% and the inhibition in vivo at 1 mg/kg is 50.8%.

As for `c1ccc2c(c1)OC(c1ccc(OCCN3CCCCC3)cc1)c1c-2sc2ccccc12` (centres unmarked) [Example 7, 6-[4-[2-(1-piperidinyl)ethoxy]phenyl]-6-H-[1]benzothieno[3,2-c][1]benzopyran], the “Uterine EPO (V. max)” value in test [1] (0.1 mg/kg) is given as 4.8. Further, in test [1] (1.0 mg/kg), the “Uterine EPO (V. max)” value came to 6.6. Further, the “Uterine EPO (V. max)” value in test [1] (10.0 mg/kg) was found to be 3.6. Further, in the test with uterus (setting [3]), the change in vivo at 0.1 mg/kg is 28.9%, the change in vivo at 1 mg/kg was found to be 31.2% and the change in vivo at 10 mg/kg amounted to 14.7%. Moreover, in the test on Serum Cholesterol (setting [4]), the inhibition in vivo at 0.1 mg/kg is 39.8%, the inhibition in vivo at 1 mg/kg stood at 65.5% and the inhibition in vivo at 10 mg/kg was found to be 54%.

On to `Oc1ccc2c(c1)OC(c1ccc(OCCN3CCCC3)cc1)c1c-2sc2cc(O)ccc12` (centres unmarked) [Example 8, 3,9-Dihydroxy-6-[4-[2-(1-pyrrolidinyl)ethoxy]phenyl]-6-H-[1]benzothieno[3,2-c][1]benzopyran], for which the “Uterine EPO (V. max)” value came out at 2.1 in test [1] (0.01 mg/kg), 4.8 in test [1] (0.1 mg/kg) and 4.8 in test [1] (1.0 mg/kg). Moreover, the change in vivo at 0.01 mg/kg in the test with uterus (Rattus norvegicus, 96 h, 0.01 mg/kg, daily for 4 days, read-out: Uterine Weight (% increase vs. OVX)) was determined as 10.2%. Also, the change in vivo at 0.1 mg/kg in the test with uterus (setting [3]) turned out to be 27.4%. In addition, the change in vivo at 1 mg/kg in the test on uterus (setting [3]) was 27.2%. In addition, the inhibition in vivo at 0.01 mg/kg with Serum Cholesterol (Rattus norvegicus, 96 h, 0.01 mg/kg, daily for 4 days, read-out: Serum Cholesterol (% decrease vs. OVX)) was determined as 50.5%. Further, the inhibition in vivo at 0.1 mg/kg with Serum Cholesterol (setting [4]) is 38.5%. Further, in the test with Serum Cholesterol (setting [4]), the inhibition in vivo at 1 mg/kg came to 68%.

On to `CN(C)CCOc1ccc(C2Oc3cc(O)ccc3-c3sc4cc(O)ccc4c32)cc1` (centres unmarked) [Example 9, 3,9-Dihydroxy-6-[4-(2-dimethylaminoethoxy)phenyl]-6-H-[1]benzothieno[3,2-c][1]benzopyran], for which, in test [1] (0.1 mg/kg), the “Uterine EPO (V. max)” value was 52.2. In addition, in the test with uterus (setting [3]), the change in vivo at 0.1 mg/kg turned out to be 77.8%. Besides, in the test with Serum Cholesterol (setting [4]), the inhibition in vivo at 0.1 mg/kg was 40.1%.

As to `Oc1ccc2c(c1)OC(c1ccc(OCCN3CCCCC3)cc1)c1c-2ccc2cc(O)ccc12` (centres unmarked) [Example 11b, 2,8-Dihydroxy-5-[4-[2-(1-piperidinyl)ethoxy]phenyl]-5H-benzo[b]naphtho[2,1-d]pyran], the “Distal Femur Metaphysis (X-ray Image Analysis-Gray Score), percent protection relative to ovariectomy” value with Distal Femur Metaphysis (0.01 mg/kg) worked out at 45.6%; in the test with Distal Femur Metaphysis (0.1 mg/kg), 38.5%; in the test on Distal Femur Metaphysis (1.0 mg/kg), 58.5%; with Distal Femur Metaphysis (10.0 mg/kg), 37.3%. Further, the “Uterine EPO (V. max)” value worked out at 9.3 in test [1] (0.1 mg/kg), 12.0 in test [1] (1.0 mg/kg) and 7.8 in test [1] (10.0 mg/kg). Also, the change in vivo at 0.1 mg/kg in the test on uterus (setting [3]) stood at 13.6%. Moreover, the change in vivo at 1 mg/kg with uterus (setting [3]) was 7.6%. For the same compound, the change in vivo at 10 mg/kg in the test on uterus (setting [3]) was -4.1%. In addition, the inhibition in vivo at 0.1 mg/kg in the test with Serum Cholesterol (setting [4]) was 66.4%. Further, in the test with Serum Cholesterol (setting [4]), the inhibition in vivo at 1 mg/kg stood at 73.9%. The inhibition in vivo at 10 mg/kg in the test on Serum Cholesterol (setting [4]) turned out to be 61.4%.
